According to patent US12178878B2, “Amyloid peptide scaffolds coordinate with Alzheimer's disease drugs” (The University of Massachusetts, priority 2018, dated 2024):
Like-named read-outs stand apart in the source and are kept apart here.

Columns and labels:
[1] = tested on: […] (SEQ ID NO: 3) amyloid peptide; assay: Amyloid peptide/inhibitor coordination in dilute solution (1 mg/mL), drug captured after pellet washings; format: binding; conditions: FYTGAIIGNYF 1 mg/mL, 150 μM inhibitor loaded, by MS
Experimental: Amyloid Peptide/Inhibitor Coordination Studies in Dilute Solutions. […] Subsequently, 1 mL of DI water was added to wash the pellet (followed by vortexing until obtaining a homogenous dispersion) in order to remove any unbound inhibitor. The samples were then centrifuged again at the same conditions so as to pelletize the amyloid materials, and the supernatant was decanted. Another 1 mL of DI water was then added into the pellet, the mixture was vortexed, and the physically bound inhibitor into the dilute amyloid peptide dispersions was quantified by UV-Vis between 200-600 nm and MS. This step is denoted as wash 1 in our study. Two additional pellet purification cycles were realized with replacement of the decanted volume each time with 1 mL of fresh DI water (denoted as wash 2 and wash 3 respectively). The inhibitor-containing peptides amyloids were normalized at 400 nm over the respective no inhibitor-containing amyloid peptides at the specific washing step, and the measured inhibitor peak values (at 315 nm and 323 nm) were subtracted from that of the amyloid peptide carriers at the same wavelength and concentration. The amount of inhibitors coordinated with the amyloid peptide carriers was quantified based on a calibration curve by both UV-Vis and MS.
The peak at 315 nm was selected for inhibitor quantification due the absence of peaks at that range for both peptides. […] However, the peak at 315 nm was selected for inhibitor quantification, and the following equation was used for both peptides: A315=A315 ([…]/Donepezil)−A315 ([…])
The peak at 323 nm was used for inhibitor quantification due the absence of peaks at that range for both peptides.

[2] = tested on: […] (SEQ ID NO: 4) amyloid peptide; format: binding; conditions: YFTGAIIGNFY 1 mg/mL, 150 μM inhibitor loaded, by MS
Experimental: Amyloid Peptide/Inhibitor Coordination Studies in Dilute Solutions. […]. As a negative control, 1 mL of 0.1 M PBS buffer was added. The mixtures were vortexed and sonicated to homogenously disperse any solid aggregates and stirred overnight to allow for coordination. The mixtures were transferred to 2 mL Eppendorf tubes and centrifuged for 15 mins at 4,400 rpm (14° C.) to pelletize the amyloid bound-inhibitors, and the supernatant was decanted. Subsequently, 1 mL of DI water was added to wash the pellet (followed by vortexing until obtaining a homogenous dispersion) in order to remove any unbound inhibitor. The samples were then centrifuged again at the same conditions so as to pelletize the amyloid materials, and the supernatant was decanted. Another 1 mL of DI water was then added into the pellet, the mixture was vortexed, and the physically bound inhibitor into the dilute amyloid peptide dispersions was quantified by UV-Vis between 200-600 nm and MS. This step is denoted as wash 1 in our study. Two additional pellet purification cycles were realized with replacement of the decanted volume each time with 1 mL of fresh DI water (denoted as wash 2 and wash 3 respectively). The inhibitor-containing peptides amyloids were normalized at 400 nm over the respective no inhibitor-containing amyloid peptides at the specific washing step, and the measured inhibitor peak values (at 315 nm and 323 nm) were subtracted from that of the amyloid peptide carriers at the same wavelength and concentration. The amount of inhibitors coordinated with the amyloid peptide carriers was quantified based on a calibration curve by both UV-Vis and MS.
. The peak at 315 nm was selected for inhibitor quantification due the absence of peaks at that range for both peptides. […]. However, the peak at 315 nm was selected for inhibitor quantification, and the following equation was used for both peptides: A315=A315 ([…]/Donepezil)−A315 ([…])
[…]. The peak at 323 nm was used for inhibitor quantification due the absence of peaks at that range for both peptides. […].

[3] = tested on: […] (SEQ ID NO: 3) amyloid peptide; assay: Coordination at higher peptide concentration (amyloid gel, 5 mg/mL), inhibitor capturing; format: binding; conditions: FYTGAIIGNYF gel 5 mg/mL, 1000 μM inhibitor solution added, by MS
Experimental: Amyloid Fibrils Preparation and Characterization. For the formation of fibrils, the amyloid peptides were dispersed in DI water at a 10 mg/ml, vortexed, heated at 60° C. for 30 sec, and sonicated for 15 mins (this cycle was repeated 10 times overall), and finally left overnight at room temperature to form a hydrogel. […] That was confirmed with Field Emission Scanning Electron Microscopy (FESEM) and Congo Red staining (CR).
Coordination Studies at Higher Peptide Concentrations and Inhibitor Capturing. […] (SEQ ID NO: 4) or […] (SEQ ID NO: 3) amyloid peptide gels (10 mg/mL, 1 mL volume) and was left to physically complex under stirring overnight (the final peptide concentration was diluted to 5 mg/mL). A control using 1 mL of 0.1 M PBS (no inhibitor) was also prepared. The complexed amyloid/inhibitor materials were then transferred to 5 mL conical Eppendorf tubes, and centrifuged for 15 mins at 4,400 rpm (14° C.). The supernatant was decanted, and 2 mL of DI water were subsequently added to wash the pellet (followed by vortexing until obtaining a homogenous dispersion) in order to remove any unbound inhibitor. The samples were then centrifuged again at the same conditions so as to pelletize the amyloid materials, and the supernatant was decanted. Another 2 mL of DI water were then added into the pellet, the mixture was vortexed, and the physically bound inhibitor into the amyloid peptides was quantified by UV-Vis between 200-600 nm and MS. This step is denoted as wash 1 in our study. Two additional pellet purification cycles were realized with replacement of the decanted volume each time with 2 mL of fresh DI water (denoted as wash 2 and wash 3 respectively). The inhibitor-containing amyloid peptides were normalized at 400 nm over the respective no inhibitor-containing ones at the specific washing step.

[4] = tested on: […] (SEQ ID NO: 4) amyloid peptide; format: binding; conditions: YFTGAIIGNFY gel 5 mg/mL, 1000 μM inhibitor solution added, by MS
Experimental: Amyloid Fibrils Preparation and Characterization. For the formation of fibrils, the amyloid peptides were dispersed in DI water at a 10 mg/ml, vortexed, heated at 60° C. for 30 sec, and sonicated for 15 mins (this cycle was repeated 10 times overall), and finally left overnight at room temperature to form a hydrogel.
A control using 1 mL of 0.1 M PBS (no inhibitor) was also prepared. The complexed amyloid/inhibitor materials were then transferred to 5 mL conical Eppendorf tubes, and centrifuged for 15 mins at 4,400 rpm (14° C.). The supernatant was decanted, and 2 mL of DI water were subsequently added to wash the pellet (followed by vortexing until obtaining a homogenous dispersion) in order to remove any unbound inhibitor. The samples were then centrifuged again at the same conditions so as to pelletize the amyloid materials, and the supernatant was decanted. Another 2 mL of DI water were then added into the pellet, the mixture was vortexed, and the physically bound inhibitor into the amyloid peptides was quantified by UV-Vis between 200-600 nm and MS. This step is denoted as wash 1 in our study. Two additional pellet purification cycles were realized with replacement of the decanted volume each time with 2 mL of fresh DI water (denoted as wash 2 and wash 3 respectively). The inhibitor-containing amyloid peptides were normalized at 400 nm over the respective no inhibitor-containing ones at the specific washing step.

AChE = AChE (Homo sapiens, UniProt P22303); conditions: in vitro, Ellman's assay, among marketed AD drugs; cited from earlier work
Chain of AChE (P22303 32-614): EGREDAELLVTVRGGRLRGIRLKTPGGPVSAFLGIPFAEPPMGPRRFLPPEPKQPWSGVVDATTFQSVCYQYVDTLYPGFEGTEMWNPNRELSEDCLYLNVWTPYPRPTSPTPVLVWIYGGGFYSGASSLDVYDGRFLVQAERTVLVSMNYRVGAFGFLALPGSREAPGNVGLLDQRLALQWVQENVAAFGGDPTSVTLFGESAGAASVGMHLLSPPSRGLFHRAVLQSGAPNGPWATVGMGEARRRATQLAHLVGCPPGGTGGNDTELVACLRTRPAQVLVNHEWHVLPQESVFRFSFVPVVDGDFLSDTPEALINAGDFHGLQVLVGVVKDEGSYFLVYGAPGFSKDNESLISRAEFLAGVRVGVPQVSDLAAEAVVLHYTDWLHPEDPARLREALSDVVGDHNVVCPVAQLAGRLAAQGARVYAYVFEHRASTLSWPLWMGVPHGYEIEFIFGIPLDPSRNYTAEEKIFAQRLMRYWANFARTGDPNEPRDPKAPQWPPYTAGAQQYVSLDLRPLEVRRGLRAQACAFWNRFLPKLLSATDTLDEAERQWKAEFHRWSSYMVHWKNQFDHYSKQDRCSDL

SMILES: CC12CC3CC(C)(C1)CC(N)(C3)C2 [memantine]
- AD compound captured, Wash 1 ([1]; 1st pellet wash): 18 ± 3 µM
- AD compound captured, Wash 2 ([1]; 2nd pellet wash): 5 ± 2 µM
- AD compound captured, Wash 3 ([1]; 3rd pellet wash): 4 ± 2 µM
- AD compound captured, Wash 1 ([2]; 1st pellet wash): 8 ± 1 µM
- AD compound captured, Wash 2 ([2]; 2nd pellet wash): 3 ± 1 µM
- AD compound captured, Wash 3 ([2]; 3rd pellet wash): 2 ± 1 µM
- AD compound captured, Wash 1 ([3]; 1st pellet wash): 32 ± 2 µM
- AD compound captured, Wash 2 ([3]; 2nd pellet wash): 16 ± 2 µM
- AD compound captured, Wash 3 ([3]; 3rd pellet wash): 12 ± 3 µM
- AD compound captured, Wash 1 ([4]; 1st pellet wash): 21 ± 1 µM
- AD compound captured, Wash 2 ([4]; 2nd pellet wash, room temperature): 10 ± 1 µM
- AD compound captured, Wash 3 ([4]; 3rd pellet wash, room temperature): 8 ± 1 µM
- inhibition towards AChE (AChE): negligible inhibition
